Results: ChEMBL document CHEMBL5226321, “Ivermectin: A Promising Therapeutic for Fighting Malaria. Current Status and Perspective” (J Med Chem, 2021)

Key:
Format in all cases: functional, organism-based
[1] = tested on: Culex quinquefasciatus; assay: Insecticidal in Culex quinquefasciatus assessed as mortality rate fed with blood of compound treated mouse at […], sc before 12 hrs and observed after 36 hrs relative to control
[2] = tested on: Anopheles gambiae; assay: Insecticidal in Anopheles gambiae G3 assessed as reduction in survivorship fed with blood of compound treated human at 150 microg/kg administered once; settings: dose 150.0 µg/kg
[3] = tested on: Aedes aegypti; assay: Insecticidal in Aedes aegypti assessed as reduction in survivorship fed with blood of compound treated human at 150 microg/kg administered once; settings: dose 150.0 µg/kg
[4] = tested on: Anopheles gambiae; assay: Insecticidal in Anopheles gambiae assessed as median lethal concentration fed with compound treated bovine blood observed after 9 days; settings: time 9.0 day
[5] = tested on: Anopheles sp.; assay: Insecticidal in Anopheles sp. assessed as lethal concentration membrane-fed with compound treated blood observed after 4 days; settings: time 4.0 day
[6] = tested on: Anopheles stephensi; assay: Insecticidal in Anopheles stephensi assessed as mortality rate with blood of compound treated mouse at 82 microg/kg observed within 36 hrs relative to control; settings: dose 82.0 µg/kg
[7] = tested on: Anopheles sp.; assay: Insecticidal in Anopheles sp. infected with Plasmodium falciparum gametocytes assessed as mortality fed with compound treated bovine blood at 200 microg/kg observed within 4 days feeding at 7 days post treatment relative to control; settings: dose 200.0 µg/kg, time 4.0 day
[8] = tested on: Anopheles sp.; assay: Insecticidal in Anopheles sp. assessed as mortality fed with compound treated pig blood at 600 microg/kg observed within 2 to 4 days feeding upto 8 days after drug administration relative to control; settings: dose 600.0 µg/kg, time 2-4 day
[9] = tested on: Anopheles sp.; assay: Insecticidal in Anopheles sp. infected with Plasmodium falciparum gametocytes assessed as reduction in survival fed with compound treated bovine blood at 200 microg/kg feeding at 2 days after injection relative to control; settings: dose 200.0 µg/kg
[10] = tested on: Anopheles sp.; assay: Insecticidal in Anopheles sp. assessed as mean plasma concentration causing death within 2-4 days fed with compound treated pig blood administered as a single dose at 600 microg/kg at 1 day post treatment observed within 2 to 4 days; settings: dose 600.0 µg/kg, time 2-4 day, pooled result: one value given for 4 cell lines, strains, targets or settings
[11] = tested on: Anopheles sp.; assay: Insecticidal in Anopheles sp. assessed as lethal concentration fed with compound treated human blood administered as a single dose at 10 microg/ml fed at 4 hrs post treatment; settings: dose 10.0 µg/ml

For IVERMECTIN, the mortality [1] was 50%, the LC50 [2] was 0.0224 µg/mL and the LC50 [3] was 0.601 µg/mL. The LC50 [4] was 19.8 ppb, the LC50 [5] was 1.47 µg/mL and the mortality [6] was 100%. For the same sequence, the mortality [7] was 100%, the mortality [8] was 100% and the Survival [9] was 86%. It also gave a Cp [10] of 15.3 ng/mL and an LC5 [11] of 18.3 ng/mL.
